Test results published in patent US10202361B2, “Pyridazinones as herbicides” (E I DU PONT DE NEMOURS AND COMPANY, priority 2014, dated 2019).

Tests used:
Assay in all cases: Test D pre-/postemergence controlled growth environment herbicide test
Format in all cases: in vivo
Conditions in all cases: scale 0 to 100
[1] = system: barley, spring (spring barley, Hordeum vulgare)
Source text: (§1) Seeds of plant species selected from bluegrass (annual bluegrass, Poa annua), blackgrass (Alopecurus myosuroides), canarygrass (Phalaris minor), chickweed (common chickweed, Stellaria media), galium (catchweed bedstraw, Galium aparine), downy bromegrass (Bromus tectorum), field poppy (Papaver rhoeas), field violet (Viola arvensis), foxtail, green (green foxtail, Setaria viridis), deadnettle (henbit deadnettle, Lamium amplexicaule), ryegrass, Italian (Italian ryegrass, Lolium multiflorum), kochia (Kochia scoparia), lambsquarters (Chenopodium album), oilseed rape (Brassica napus), pigweed (Amaranthus retroflexus), chamomile (scentless chamomile, Matricaria inodora), Russian thistle (Salsola kali), speedwell (bird's-eye speedwell, Veronica persica), barley, spring (spring barley, Hordeum vulgare), wheat, spring (spring wheat, Triticum aestivum), buckwheat, wild (wild buckwheat, Polygonum convolvulus), mustard, wild (wild mustard, Sinapis arvensis), oat, wild (wild oat, Avena fatua), radish, wild (wild radish, Raphanus raphanistrum), windgrass (Apera spica-venti), barley, winter (winter barley, Hordeum vulgare), and wheat, winter (winter wheat, Triticum aestivum) were planted into a silt loam soil and treated preemergence with test chemicals formulated in a non-phytotoxic solvent mixture which included a surfactant.
(§2) At the same time, these species were planted in pots containing Redi-Earth® planting medium (Scotts Company, 14111 Scottslawn Road, Marysville, Ohio 43041) comprising spaghnum peat moss, vermiculite, wetting agent and starter nutrients and treated with postemergence applications of the test chemicals formulated in the same manner. Plants ranged in height from 2 to 18 cm (1- to 4-leaf stage). Treated plants and controls were maintained in a controlled growth environment for 14 to 21 d after which time all species were compared to controls and visually evaluated. Plant response ratings, summarized in Table D, are based on a scale of 0 to 100 where 0 is no effect and 100 is complete control. A dash (-) response means no test result.

[2] = system: barley, winter (winter barley, Hordeum vulgare)
Source text: as §1, §2

[3] = system: bluegrass (annual bluegrass, Poa annua)
Source text: as §1, §2

[4] = system: canarygrass (Phalaris minor)
Source text: as §1, §2

[5] = system: chickweed (common chickweed, Stellaria media)
Source text: as §1, §2

[6] = system: kochia (Kochia scoparia)
Source text: as §1, §2

[7] = system: mustard, wild (wild mustard, Sinapis arvensis)
Source text: as §1, §2

[8] = system: oat, wild (wild oat, Avena fatua)
Source text: as §1, §2

[9] = system: pigweed (Amaranthus retroflexus)
Source text: as §1, §2

[10] = system: ryegrass, Italian (Italian ryegrass, Lolium multiflorum)
Source text: as §1, §2

[11] = system: wheat, spring (spring wheat, Triticum aestivum)
Source text: as §1, §2

Compound: COc1cc(=O)n(-c2ccc(F)cc2)nc1Cc1ccnc(C(F)(F)F)c1 [Compound 17, 2-(4-fluorophenyl)-5-methoxy-6-[[2-(trifluoromethyl)-4-pyridinyl]methyl]-3 (2H)-pyridazinone]
- Plant response rating ([1]; Postemergence, 31 g ai/ha): 5
- Plant response rating ([1]; Postemergence, 62 g ai/ha): 10
- Plant response rating ([1]; Postemergence, 125 g ai/ha): 15
- Plant response rating ([1]; Postemergence, 250 g ai/ha): 15
- Plant response rating ([1]; Postemergence, 500 g ai/ha): 35
- Plant response rating ([1]; Preemergence, 31 g ai/ha): 15
- Plant response rating ([1]; Preemergence, 62 g ai/ha): 20
- Plant response rating ([1]; Preemergence, 125 g ai/ha): 20
- Plant response rating ([1]; Preemergence, 250 g ai/ha): 70
- Plant response rating ([1]; Preemergence, 500 g ai/ha): 90
- Plant response rating ([2]; Postemergence, 31 g ai/ha): 15
- Plant response rating ([2]; Postemergence, 62 g ai/ha): 15
- Plant response rating ([2]; Postemergence, 125 g ai/ha): 25
- Plant response rating ([2]; Postemergence, 250 g ai/ha): 30
- Plant response rating ([2]; Postemergence, 500 g ai/ha): 35
- Plant response rating ([2]; Preemergence, 31 g ai/ha): 10
- Plant response rating ([2]; Preemergence, 62 g ai/ha): 20
- Plant response rating ([2]; Preemergence, 125 g ai/ha): 40
- Plant response rating ([2]; Preemergence, 250 g ai/ha): 75
- Plant response rating ([2]; Preemergence, 500 g ai/ha): 80
- Plant response rating ([3]; Postemergence, 31 g ai/ha): 5
- Plant response rating ([3]; Postemergence, 62 g ai/ha): 5
- Plant response rating ([3]; Postemergence, 125 g ai/ha): 5
- Plant response rating ([3]; Postemergence, 250 g ai/ha): 10
- Plant response rating ([3]; Postemergence, 500 g ai/ha): 20
- Plant response rating ([3]; Preemergence, 31 g ai/ha): 0
- Plant response rating ([3]; Preemergence, 62 g ai/ha): 0
- Plant response rating ([3]; Preemergence, 125 g ai/ha): 25
- Plant response rating ([3]; Preemergence, 250 g ai/ha): 60
- Plant response rating ([3]; Preemergence, 500 g ai/ha): 85
- Plant response rating ([4]; Postemergence, 31 g ai/ha): 10
- Plant response rating ([4]; Postemergence, 62 g ai/ha): 20
- Plant response rating ([4]; Postemergence, 125 g ai/ha): 20
- Plant response rating ([4]; Postemergence, 250 g ai/ha): 30
- Plant response rating ([4]; Postemergence, 500 g ai/ha): 35
- Plant response rating ([4]; Preemergence, 31 g ai/ha): 0
- Plant response rating ([4]; Preemergence, 62 g ai/ha): 0
- Plant response rating ([4]; Preemergence, 125 g ai/ha): 10
- Plant response rating ([4]; Preemergence, 250 g ai/ha): 30
- Plant response rating ([4]; Preemergence, 500 g ai/ha): 50
- Plant response rating ([5]; Postemergence, 31 g ai/ha): 10
- Plant response rating ([5]; Postemergence, 62 g ai/ha): 40
- Plant response rating ([5]; Postemergence, 125 g ai/ha): 60
- Plant response rating ([5]; Postemergence, 250 g ai/ha): 100
- Plant response rating ([5]; Postemergence, 500 g ai/ha): 100
- Plant response rating ([5]; Preemergence, 31 g ai/ha): 100
- Plant response rating ([5]; Preemergence, 62 g ai/ha): 100
- Plant response rating ([5]; Preemergence, 125 g ai/ha): 100
- Plant response rating ([5]; Preemergence, 250 g ai/ha): 100
- Plant response rating ([5]; Preemergence, 500 g ai/ha): 100
- Plant response rating ([6]; Postemergence, 31 g ai/ha): 25
- Plant response rating ([6]; Postemergence, 62 g ai/ha): 60
- Plant response rating ([6]; Postemergence, 125 g ai/ha): 70
- Plant response rating ([6]; Postemergence, 250 g ai/ha): 80
- Plant response rating ([6]; Postemergence, 500 g ai/ha): 90
- Plant response rating ([6]; Preemergence, 31 g ai/ha): 100
- Plant response rating ([6]; Preemergence, 62 g ai/ha): 100
- Plant response rating ([6]; Preemergence, 125 g ai/ha): 100
- Plant response rating ([6]; Preemergence, 250 g ai/ha): 100
- Plant response rating ([6]; Preemergence, 500 g ai/ha): 100
- Plant response rating ([7]; Postemergence, 31 g ai/ha): 20
- Plant response rating ([7]; Postemergence, 62 g ai/ha): 50
- Plant response rating ([7]; Postemergence, 125 g ai/ha): 80
- Plant response rating ([7]; Postemergence, 250 g ai/ha): 100
- Plant response rating ([7]; Postemergence, 500 g ai/ha): 100
- Plant response rating ([7]; Preemergence, 31 g ai/ha): 100
- Plant response rating ([7]; Preemergence, 62 g ai/ha): 100
- Plant response rating ([7]; Preemergence, 125 g ai/ha): 100
- Plant response rating ([7]; Preemergence, 250 g ai/ha): 100
- Plant response rating ([7]; Preemergence, 500 g ai/ha): 100
- Plant response rating ([8]; Postemergence, 31 g ai/ha): 10
- Plant response rating ([8]; Postemergence, 62 g ai/ha): 10
- Plant response rating ([8]; Postemergence, 125 g ai/ha): 10
- Plant response rating ([8]; Postemergence, 250 g ai/ha): 20
- Plant response rating ([8]; Postemergence, 500 g ai/ha): 50
- Plant response rating ([8]; Preemergence, 31 g ai/ha): 0
- Plant response rating ([8]; Preemergence, 62 g ai/ha): 0
- Plant response rating ([8]; Preemergence, 125 g ai/ha): 50
- Plant response rating ([8]; Preemergence, 250 g ai/ha): 75
- Plant response rating ([8]; Preemergence, 500 g ai/ha): 85
- Plant response rating ([9]; Postemergence, 31 g ai/ha): 20
- Plant response rating ([9]; Postemergence, 62 g ai/ha): 30
- Plant response rating ([9]; Postemergence, 125 g ai/ha): 30
- Plant response rating ([9]; Postemergence, 250 g ai/ha): 70
- Plant response rating ([9]; Postemergence, 500 g ai/ha): 95
- Plant response rating ([9]; Preemergence, 31 g ai/ha): 10
- Plant response rating ([9]; Preemergence, 62 g ai/ha): 100
- Plant response rating ([9]; Preemergence, 125 g ai/ha): 100
- Plant response rating ([9]; Preemergence, 250 g ai/ha): 100
- Plant response rating ([9]; Preemergence, 500 g ai/ha): 100
- Plant response rating ([10]; Postemergence, 31 g ai/ha): 10
- Plant response rating ([10]; Postemergence, 62 g ai/ha): 10
- Plant response rating ([10]; Postemergence, 125 g ai/ha): 10
- Plant response rating ([10]; Postemergence, 250 g ai/ha): 15
- Plant response rating ([10]; Postemergence, 500 g ai/ha): 35
- Plant response rating ([10]; Preemergence, 31 g ai/ha): 0
- Plant response rating ([10]; Preemergence, 62 g ai/ha): 0
- Plant response rating ([10]; Preemergence, 125 g ai/ha): 0
- Plant response rating ([10]; Preemergence, 250 g ai/ha): 50
- Plant response rating ([10]; Preemergence, 500 g ai/ha): 80
- Plant response rating ([11]; Postemergence, 31 g ai/ha): 10
- Plant response rating ([11]; Postemergence, 62 g ai/ha): 15
- Plant response rating ([11]; Postemergence, 125 g ai/ha): 20
- Plant response rating ([11]; Postemergence, 250 g ai/ha): 20
- Plant response rating ([11]; Postemergence, 500 g ai/ha): 30
- Plant response rating ([11]; Preemergence, 31 g ai/ha): 0
- Plant response rating ([11]; Preemergence, 62 g ai/ha): 15
- Plant response rating ([11]; Preemergence, 125 g ai/ha): 30
- Plant response rating ([11]; Preemergence, 250 g ai/ha): 70
- Plant response rating ([11]; Preemergence, 500 g ai/ha): 90
